Measured values as given in patent US8518956B2, “1-(1-(2-ethoxyethyl)-3-ethyl-7-(4-methylpyridin-2-ylamino)-1H-pyrazolo[4,3-d]pyrimidin-5-yl) piperidine-4-carboxylic acid and salts thereof” (priority 2005, dated 2013).
Where two headings read alike, the source gives them in different places. Blank lines part the entries; values can stand above or below the compound they belong to.

Legend:
PDE5 enzyme = biological target: T1, PDE5 enzyme (Homo sapiens, UniProt O76074); test: Method 1: Human Platelet PDE5 Enzyme Inhibition Scintillation Proximity Assay; format: biochemical; conditions: METHOD 1: PDE5 IC50, Table B, WO2004096810 examples
T1 construct: The PDE5 enzyme isolated from human platelets; from tissue; host or cells: human platelets
In short: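 Human platelet PDE5 hydrolysing 500 nM cGMP (3:1 unlabelled:[3H]) in Tris-HCl pH 7.4 with MgCl2 and BSA, 60 min at 30 °C. Reaction stopped with yttrium silicate SPA beads and [3H]GMP counted by scintillation. IC50 from sigmoid curves over a 10-point half-log dilution series, in duplicate.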

PDE11 enzyme = biological target: T2, PDE11 enzyme (Homo sapiens, UniProt Q9HCR9, DUP921-921); test: Method 3: Human Recombinant PDE11 Enzyme Inhibition Scintillation Proximity Assay (SPA); format: biochemical; conditions: WO2004096810 examples
T2 construct: FLAG (N); made in house; host or cells: Sf9 insect cells (baculovirus, pFastBac)
Experimental: Method 3: Human Recombinant PDE11 Enzyme Inhibition Scintillation Proximity Assay (SPA)
PDE11 Expression and Purification:
Incubate at 27° C. with 220 rpm shaking for 48 hours. Harvest the infected cells by pelleting at 2000 rpm for 10 minutes at 4° C. Store the infected cell pellet at −80° C. until ready for purification. Resuspend the thawed cell pellets to 1×10^7 cells/ml (=20 ml buffer consisting of 20 mM Hepes (pH7.2), 1 mM EDTA, 20 mM sucrose, 150 mM NaCl and protease inhibitor tablets). Mix thoroughly and allow to stand on ice for 10 minutes. Sonicate for 5×5 seconds, on ice. Spin the mixture at 12,000 rpm for 10 minutes at 4° C. in SS34. Store the insoluble pellet at −80° C., and proceed to the purification of the soluble material. • (b) Purification: Prepare the column (1.0 cm diameter, Kontes) by rinsing the empty column twice with TBS. Then mix beads (Anti-FLAG M2 Agarose, Sigma) with TBS and add to the column—allow the beads to settle. Wash the column with 3 column volumes of 0.1M glycine (pH3.5). […] Apply the extract to the column and allow the extract to enter by gravity flow. Reapply the flow-through. Wash the column with 15 column volumes of TBS. Elute the protein with 5×1 ml aliquots of FLAG peptide (Sigma) (i.e., 100 ug/ml in TBS). Elute the remaining protein with 1 ml 0.1M glycine, and immediately add 25 ul 1M Tris pH8 to neutralize. Method 3A: Alternative Human Recombinant PDE11 Enzyme Inhibition Scintillation Proximity Assay (SPA)

PDE6 enzyme = conditions: read-out: METHOD 2: PDE6 IC50; Table F, WO2004096810 examples
Source text: Method 2: Human Retina PDE6 Enzyme Inhibition Scintillation Proximity Assay (SPA)
The inhibition of PDE6 enzyme activity by a test compound can be measured in accordance with the in vitro assay of Method 1, but instead using semi-purified PDE6 enzyme isolated from human, bovine or canine retina in place of PDE5 enzyme. […] [3H]GMP binds to yttrium silicate SPA beads and is detected by scintillation counting. • PDE6 Purification: PDE6 can be isolated and purified from the following: Soluble rod PDE6/Rod Outer Segment PDE6 from Bovine eyes (Charles River Ltd, France); Cone PDE6 from Canine eyes (LAS); or Soluble rod and Cone PDE6 from Human eyes (I.I.A.M.).
While supporting the eye with the cornea uppermost, make a small incision through the conjunctiva below the level of the iris. The incision should be sufficient to allow the humor to escape through the cut. Using fine scissors, cut around the cornea to enable it to be lifted off as a flap. Using a small hook, engage the lens and gently pull it out of orbit, taking care not to pull out the retina at the same time. Allow the retina to drop down of its own accord to the base of the orbit.
Lift the retina with care and locate the optic nerve. Cut through the optic nerve and transfer the retina to a small dish containing a few ml of homogenisation buffer. Gently float the retina out on the surface of the buffer and remove any obvious pigmented material from the iris. Place the retina in a second dish with clean buffer to remove last traces of pigment and then transfer to a 50 ml Corning Costar centrifuge tube (Sigma) and keep on ice. • PDE6 Isolation and Purification from Retina: Allow 2 mls of the homogenisation buffer per bovine retina and 1 ml per retina for dog and human. Homogenise using hand-held homogeniser 3×5 second bursts cooling on ice between each burst. Filter homogenate through two layers of surgical gauze. Spin at 100,000 g for 60 minutes at 4° C. […] Run through FPLC (Pharmacia FPLC LKB/FRAC-100, Pharmacia) or aliquot and store in liquid nitrogen as needed. Method 2A: Alternative Human Retina PDE6 Enzyme Inhibition Scintillation Proximity Assay (SPA)

[1] = test system: spontaneously hypertensive rats (SHR); test: Method 12: SHR Rat Combination Therapy, blood pressure by telemetry; format: in vivo; conditions: 0.007% in drinking water, day 7
[2] = Table F, read-out: METHOD 3: PDE11 IC50

T2 sequence (Q9HCR9 with tags, fused parts or gaps DUP921-921 limits assumed): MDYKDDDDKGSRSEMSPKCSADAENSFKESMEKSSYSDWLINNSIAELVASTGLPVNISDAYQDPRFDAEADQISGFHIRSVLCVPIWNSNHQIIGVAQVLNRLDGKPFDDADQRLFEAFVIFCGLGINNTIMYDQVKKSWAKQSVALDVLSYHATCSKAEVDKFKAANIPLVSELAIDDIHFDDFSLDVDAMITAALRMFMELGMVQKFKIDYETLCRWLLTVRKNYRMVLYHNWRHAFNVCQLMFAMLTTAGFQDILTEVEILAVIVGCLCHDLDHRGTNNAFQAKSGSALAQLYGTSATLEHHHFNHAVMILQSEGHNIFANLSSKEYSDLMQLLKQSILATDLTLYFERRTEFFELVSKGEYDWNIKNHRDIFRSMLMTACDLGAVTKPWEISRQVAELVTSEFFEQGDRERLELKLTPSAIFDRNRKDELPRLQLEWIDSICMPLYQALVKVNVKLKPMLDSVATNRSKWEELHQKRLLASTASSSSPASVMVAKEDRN

SMILES: CCc1nn(CCOCC(F)(F)F)c2c(Nc3ccnnc3)nc(N3CCN[C@H](C)C3)nc12 [WO2004096810 Example 248]
IC50 (PDE5 enzyme): 0.3 nM | IC50 (PDE11 enzyme; [2]): 316 nM | IC50 (PDE6 enzyme): 9.92 nM

SMILES: CCc1nn(CCOCC(F)(F)F)c2c(Nc3cc(C)ncn3)nc(N(C)C3CCN(C)CC3)nc12 [WO2004096810 Example 251]
IC50 (PDE5 enzyme): 0.25 nM | IC50 (PDE11 enzyme; METHOD 3: PDE11 IC50, Table F): 1860 nM | IC50 (PDE6 enzyme): 9.51 nM

SMILES: CCOCc1nn(CCOCC(F)(F)F)c2c(Nc3cc(C)ccn3)nc(N3CCN[C@H](C)C3)nc12 [WO2004096810 Example 256]
IC50 (PDE5 enzyme): 3.82 nM | IC50 (PDE11 enzyme; [2]): 913 nM | IC50 (PDE6 enzyme): 275 nM

SMILES: CCOCc1nn(CCOCC(F)(F)F)c2c(Nc3cccc(C)n3)nc(N3CCN[C@H](C)C3)nc12 [WO2004096810 Example 255]
IC50 (PDE5 enzyme): 1.43 nM | IC50 (PDE11 enzyme; [2]): 937 nM | IC50 (PDE6 enzyme): 207 nM

SMILES: CCOC(=O)[C@H](CCc1ccccc1)N[C@@H](C)C(=O)N1CCC[C@H]1C(=O)O [Enalapril, enalapril]
maximal reduction of blood pressure from pre-dose baseline in comparison to vehicle treated group [1]: 22±2 mmHg

SMILES: CCc1nn(CCOCC(F)(F)F)c2c(Nc3ccnc(C)n3)nc(N3CCN[C@H](C)C3)nc12 [WO2004096810 Example 250]
IC50 (PDE5 enzyme): 2.37 nM | IC50 (PDE11 enzyme; [2]): 3120 nM | IC50 (PDE6 enzyme): 221 nM

SMILES: COCc1nn(CCOCC(F)(F)F)c2c(Nc3cc(C)ccn3)nc(N3CC4CCC(C3)N4)nc12 [WO2004096810 Example 259]
IC50 (PDE5 enzyme): 3.74 nM | IC50 (PDE11 enzyme; METHOD 3: PDE11 IC50, Table F): 199 nM | IC50 (PDE6 enzyme): 204 nM

SMILES: COCc1nn(CCOCC(F)(F)F)c2c(Nc3cccc(C)n3)nc(N3CCN[C@H](C)C3)nc12 [WO2004096810 Example 252]
IC50 (PDE5 enzyme): 2.81 nM | IC50 (PDE11 enzyme; [2]): 874 nM | IC50 (PDE6 enzyme): 307 nM

SMILES: Cc1ccnc(Nc2nc(N(C)[C@H]3CCN(C)C3)nc3c(C)nn(CCOCC(F)(F)F)c23)c1 [WO2004096810 Example 245]
IC50 (PDE5 enzyme): 1.55 nM | IC50 (PDE11 enzyme; [2]): 390 nM | IC50 (PDE6 enzyme): 250 nM

SMILES: Cc1cccc(Nc2nc(N3CCNCC3)nc3c(C)nn(CCOCC(F)(F)F)c23)n1 [WO2004096810 Example 258]
IC50 (PDE5 enzyme): 1.99 nM | IC50 (PDE11 enzyme; [2]): 215 nM | IC50 (PDE6 enzyme): 198 nM

SMILES: CCc1nn(CCOCC(F)(F)F)c2c(Nc3ccncn3)nc(N3CCN[C@H](C)C3)nc12 [WO2004096810 Example 249]
IC50 (PDE5 enzyme): 0.16 nM | IC50 (PDE11 enzyme; [2]): 1190 nM | IC50 (PDE6 enzyme): 5.1 nM

SMILES: COCc1nn(CCOCC(F)(F)F)c2c(Nc3cccc(C)c3)nc(N3CCN[C@H](C)C3)nc12 [WO2004096810 Example 253]
IC50 (PDE5 enzyme): 1.2 nM | IC50 (PDE11 enzyme; [2]): 312 nM | IC50 (PDE6 enzyme): 100 nM

SMILES: CCN(C)c1nc(Nc2ccc(=O)n(C)c2)c2c(n1)c(COC)nn2CCOCC(F)(F)F [WO2004096810 Example 254]
IC50 (PDE5 enzyme): 0.59 nM | IC50 (PDE11 enzyme; [2]): 2880 nM | IC50 (PDE6 enzyme): 188 nM

IC50 (PDE5 enzyme): 82.7 nM
SMILES: CCOCCn1nc(C)c2nc(N3C[C@@H]4C[C@H]3CN4C)nc(Nc3ccncn3)c21 [WO2004096810 Example 210]

SMILES: Cc1nccc(Nc2nc(N3CCN[C@H](C)C3)nc3c(C)nn(CCOCC(F)(F)F)c23)n1 [WO2004096810 Example 246]
IC50 (PDE5 enzyme): 4.46 nM | IC50 (PDE11 enzyme; [2]): 4320 nM | IC50 (PDE6 enzyme): 657 nM

IC50 (PDE5 enzyme): 1.8 nM
SMILES: CCOCCn1nc(C)c2nc(N(C)[C@@H]3CCN(C)C3)nc(Nc3cc(C)ccn3)c21 [WO2004096810 Example 156]

IC50 (PDE5 enzyme): > 10000 nM
SMILES: CCCc1nn(C)c2c(Nc3ccc(C)cn3)nc(N(C)C3CNC3)nc12 [WO2004096810 Example 38]

IC50 (PDE5 enzyme): > 100 nM
SMILES: CCCc1nn(C)c2c(Nc3cccnn3)nc(N3CCNCC3)nc12 [WO2004096810 Example 88]

IC50 (PDE5 enzyme): 12.1 nM
SMILES: CCc1nn(CCOC)c2c(Nc3cc(C)ccn3)nc(N3CCNCC3)nc12 [WO2004096810 Example 152]

IC50 (PDE5 enzyme): 1.95 nM
SMILES: CCOCCn1nc(CC)c2nc(N3C[C@H](C)NC[C@H]3C)nc(Nc3ccc(C)cn3)c21 [WO2004096810 Example 140]

IC50 (PDE5 enzyme): 4.7 nM
SMILES: CCOCCn1nc(C)c2nc(N3CCN[C@H](C)C3)nc(Nc3cc(C)ncn3)c21 [WO2004096810 Example 200]
